Assay results from patent US12662513B2, “Peptidic modulators of quorum sensing in Staphylococcus epidermidis” (priority 2016, dated 2026).
Entries after “also recorded” stand apart in the source; their conditions may differ. Bridge positions count the residues as written; N and C are the ends. Ends that are not written are not given here. Peptide text beside a SMILES is read from it.

Key:
AgrC-I receptor = AgrC-I receptor (Staphylococcus epidermidis, UniProt Q5HMY3); assay: cell-based; format: cell-based, S. epidermidis; details: for Mode/strength of activity toward AgrC-I (Group I), in words: dose response; for Activity toward Group-I at lower concentration, in words: single concentration 100 nM (or 1 μM)
Procedure: The initial set of 14 analogs (listed in Table 1) was synthesized using solid-phase peptide chemistry and purified to homogeneity using previously established HPLC methods (59). Each analog was tested for its ability to modulate the activity of the AgrC-I receptor using a wild-type S. epidermidis Group-I fluorescence reporter strain. This strain contained a reporter plasmid encoding a gfp gene fused to the P3 promoter found upstream of RNAIII (36).
(§1) Biological reagents, strains, and general methods. All standard reagents were purchased from commercial sources and used according to enclosed instructions. The S. epidermidis fluorescence reporter strains AH3408 (Group-I), AH3567 (Group-II), and AH3409 (Group-III) were cultured in Tryptic Soy Broth (TSB, from Sigma) augmented with 10 μg/mL of erythromycin (36). The S. epidermidis wild-type strain RP62A (Group-I) was cultured in TSB (from Sigma or EMD Millipore). The S. aureus fluorescence reporter strains AH1677 (Group-I), AH430 (Group-II), AH1747 (Group-III), and AH1872 (Group-IV) were cultured in Brain Heart Infusion (BHI, from Teknova) augmented with 10 μg/mL of chloramphenicol (65). All cultures were grown at 37° C. with shaking (200 rpm) unless noted otherwise. Absorbance and fluorescence measurements were obtained using a Biotek Synergy 2 microplate reader operating Gen5 data analysis software. IC50 values and EC50 values were determined from sigmoidal curve fits using GraphPad Prism software (v. 6.0).
(§2) Fluorescence reporter assay protocol. […] Each peptide solution was tested in triplicate. […] Plates were then incubated at 37° C. for 24 h. Fluorescence (EX 500 nm/EM 540 nm) and OD600 of each well was measured using a plate reader, and the fluorescence values were normalized to the DMSO control.
(§3) The remaining steps of the fluorescence assay were the same as above.

AgrC-II = details: for Activity toward Group-II at lower concentration, in words: single concentration 100 nM (or 1 μM)
From the text: (§4) However, the biological significance of this agr interference remains unclear, although it has been hypothesized to potentially play a role in competition between different groups in a mixed bacteria milieu (18). […] To this end, the AIP analogs discussed above were screened in GFP reporter strains of Groups-II and -III S. epidermidis to complement the Group-I S. epidermidis data in Tables 1 and 2 (see Methods; FIGS. 7A and 7B).
as §1, §2, §3

AgrC-III = details: for Activity toward Group-III at lower concentration, in words: single concentration 100 nM (or 1 μM)
From the text: as §4, §1, §2, §3

[1] = test system: S. epidermidis Group-I RP62A biofilm
Procedure: as §1
Crystal violet biofilm assay protocol. […] Each solution was tested in triplicate.

[2] = test system: AgrC I-IV receptors in S. aureus Groups-I-IV; assay: Fluorescence (GFP) reporter strain assays, S. aureus Groups-I-IV; format: cell-based; details: 100 nM unless noted
From the text: (§5) Similar to the cross-group inhibition observed between different agr groups of the same species, this cross-species inhibitory effect has no known biological role, but is hypothesized to provide a competitive advantage on a host (18, 46). Thus, AIP analogs described herein were examined to identify potential species-specific inhibitors that target either S. epidermidis Group-I or S. aureus Groups-I-IV.
as §1, with “The S. epidermidis wild-type strain RP62A (Group-I) was cultured in TSB (from Sigma or EMD Millipore).” left out, “All cultures were grown at 37° C. with shaking (200 rpm) unless noted otherwise.” left out
(§6) Fluorescence reporter assay protocol. […]
as §3

[3] = test system: agr system of S. aureus Group-III; assay: Fluorescence (GFP) reporter strain assay, S. aureus Group-III; format: cell-based; details: 100 nM unless noted
From the text: as §5
as §1, with “The S. epidermidis wild-type strain RP62A (Group-I) was cultured in TSB (from Sigma or EMD Millipore).” left out, “All cultures were grown at 37° C. with shaking (200 rpm) unless noted otherwise.” left out
as §6, §3

[4] = dose response antagonism assay, FIGS. 3A/3B

AgrC-I receptor, sequence (Q5HMY3 entry or part of it): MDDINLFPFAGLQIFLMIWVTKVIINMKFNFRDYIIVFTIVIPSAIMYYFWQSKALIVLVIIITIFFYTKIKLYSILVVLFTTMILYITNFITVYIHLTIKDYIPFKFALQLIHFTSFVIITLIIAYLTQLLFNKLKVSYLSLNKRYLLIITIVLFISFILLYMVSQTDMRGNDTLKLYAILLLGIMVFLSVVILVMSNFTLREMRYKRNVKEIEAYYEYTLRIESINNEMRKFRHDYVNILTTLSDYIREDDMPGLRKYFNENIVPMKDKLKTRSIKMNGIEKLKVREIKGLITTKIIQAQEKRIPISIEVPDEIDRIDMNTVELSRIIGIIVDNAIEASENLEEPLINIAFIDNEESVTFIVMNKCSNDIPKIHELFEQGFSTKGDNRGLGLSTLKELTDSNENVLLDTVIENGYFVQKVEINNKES

Row | Compound | Mode/strength of activity toward AgrC-I (Group I), in words (AgrC-I receptor) | Activity toward Group-II at lower concentration, in words (AgrC-II) | Activity toward Group-III at lower concentration, in words (AgrC-III) | Activity toward Group-I at lower concentration, in words (AgrC-I receptor) | Effect on agr activity in S. aureus Groups-I-IV, in words [2] | other results
1 | C[C@H](N)C(=O)N[C@@H](CO)C(=O)N[C@@H](C)C(=O)N[C@H]1CSC(=O)[C@H](Cc2ccccc2)NC(=O)[C@H](Cc2ccc(O)cc2)NC(=O)[C@H](C)NC(=O)[C@H](CO)NC1=O [AIP-I D1AS6AV3AA5S, A-S-A-(C-S-A-Y-F)] (H-ASACSAYF; thioester 4-C) | analogous potency as the parent triple mutant | strongly inhibited | strongly inhibited | – | – | IC50 against AgrC-II, in words (AgrC-II; [4]): subnanomolar to low nanomolar range; IC50 against AgrC-III, in words (AgrC-III; [4]): subnanomolar to low nanomolar range; Effect on biofilm growth, in words ([1]; 10 μM, 24 h): did not increase biofilm growth
2 | CC(C)[C@H](NC(=O)[C@H](CO)NC(=O)[C@@H](N)CC(=O)O)C(=O)N[C@H]1CSC(=O)[C@H](Cc2ccccc2)NC(=O)[C@H](Cc2ccc(O)cc2)NC(=O)[C@H](CO)NC(=O)[C@H](C)NC1=O [AIP-I, D-S-V-(C-A-S-Y-F), reference compound] (H-DSVCASYF; thioester 4-C) | – | – | – | – | – | IC50 ([1]; read-out: IC50 of biofilm growth inhibition, 24 h static, CV staining): 99 nM
3 | CC(C)C[C@@H]1NC(=O)[C@H](Cc2ccc(O)cc2)NC(=O)[C@H](CC(N)=O)NC(=O)[C@H](CO)NC(=O)[C@@H](NC(=O)[C@@H]2CCCN2C(=O)[C@H](CC(N)=O)NC(=O)[C@@H](N)Cc2ccc(O)cc2)CSC1=O [AIP-II 8aa, Y-N-P-(C-S-N-Y-L)] (H-YNPCSNYL; thioester 4-C) | potency similar to the parent AIP-II | inhibitory activity against Group-II decreased | – | remained active; also recorded: selectively inhibited | without significantly affecting agr activity | inhibition at 10 µM (AgrC-I receptor; read-out: Inhibition of AgrC-I (inhibiting to ~%)): ~75%; Activity against Group-III, in words (AgrC-III; single concentration 10 μM): inactive
4 | CC(C)C[C@@H]1NC(=O)[C@H](Cc2ccc(O)cc2)NC(=O)[C@H](CC(N)=O)NC(=O)[C@H](CO)NC(=O)[C@@H](NC(=O)[C@@H]2CCCN2C(=O)[C@H](CC(N)=O)NC(=O)[C@H](Cc2ccc(O)cc2)NC(=O)[C@@H](N)CCCCN)CSC1=O [AIP-II 9aa, K-Y-N-P-(C-S-N-Y-L)] (H-KYNPCSNYL; thioester 5-C) | – | highly active agonist | inactive | inhibited; also recorded: largely an inhibitor specific to S. epidermidis Group-I | – | Inhibitory activity in S. aureus Group-III, in words [3]: weak inhibitory activity
5 | I-N-(C-A-F-L-L) (INCAFLL; bridge 3-C; also: thiolactone between Cys3 side chain and C-terminus) [S. aureus AIP-III D4A, reference compound] | largely inactive | inhibiting exclusively Group-II | – | inactive | potent pan-group inhibitor | EC50 in AgrC-I (AgrC-I receptor; activation dose response in the presence of 50 nM S. epidermidis AIP-II): Inactive^c; IC50 in AgrC-I (AgrC-I receptor; antagonism dose response, peptide alone, Group-I GFP reporter strain, 24 h): Inactive^c
